Measured values from paper PMC10333360, “Establishing mammalian GLUT kinetics and lipid composition influences in a reconstituted-liposome system” (Nature Communications, 2023).

Key:
rGLUT5 [1] = target: T1, rGLUT5 (Rattus norvegicus, UniProt P43427); experiment: competitive […]-D-fructose uptake in proteoliposomes, […] compound, […] reduction; assay type: biochemical
T1 construct: gene Slc2a5
T1 sequence (P43427 1-502): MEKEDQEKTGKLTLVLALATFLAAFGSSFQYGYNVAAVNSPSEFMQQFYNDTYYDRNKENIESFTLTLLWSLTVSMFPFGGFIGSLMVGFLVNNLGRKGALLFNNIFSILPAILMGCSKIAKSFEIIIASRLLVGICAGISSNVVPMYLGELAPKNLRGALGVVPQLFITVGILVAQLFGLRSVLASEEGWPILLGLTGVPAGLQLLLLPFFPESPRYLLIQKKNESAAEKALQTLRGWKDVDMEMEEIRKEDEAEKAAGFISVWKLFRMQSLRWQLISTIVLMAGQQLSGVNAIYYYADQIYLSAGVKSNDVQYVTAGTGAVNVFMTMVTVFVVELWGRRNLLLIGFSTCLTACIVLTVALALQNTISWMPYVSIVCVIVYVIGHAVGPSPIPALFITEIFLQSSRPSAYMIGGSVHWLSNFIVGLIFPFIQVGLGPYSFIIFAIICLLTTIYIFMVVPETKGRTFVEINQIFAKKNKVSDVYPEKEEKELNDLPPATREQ

rGLUT5 [2] = target: T1, rGLUT5; experiment: inhibition of […]-D-fructose uptake by purified rGLUT5 in brain-fraction-seven proteoliposomes; assay type: biochemical

Row | Compound | % reduction (rGLUT5 [1]) [% reduction] | IC50 (rGLUT5 [2]) [µM]
1 | Cc1ccc(NC(=O)Oc2ccccc2)cc1 [C2, phenyl-n-(p-tolyl)-carbamate] | 20 | 
2 | Cc1ccc(NC(=O)Oc2ccc(C)cc2)cc1 [H4, 4-methylphenyl-N-(4-methylphenyl)-carbamate] |  | 500
